Reference: article PMC8471451 (Pharmaceuticals, 2021)
Several values for one entry are separate records, joined by “and”; a condition that tells them apart may be missing. Identical values can stand only once.

How the values were obtained:
[1] = tested on: SARS-CoV-2 spike pseudovirus; experiment: microbe, parasite or virus in culture; assay type: cell-based; settings: for IC50: Severe acute respiratory syndrome coronavirus 2, read-out: IC50 (inhibition of 50% viral entry into host cells)
HEK-293T-ACE2^h cells = experiment: Cytotoxicity by MTT assay; assay type: cell-based, human; settings: for CC0 (maximum nontoxic concentration): 4 h incubation; for TC50 (concentration causing 50% host cells' death): 48 h treatment
Procedure: The cytotoxic effect of honokiol derivatives on HEK-293T-ACE2^h cells was evaluated by MTT assay. HEK-293T-ACE2^h cells were seed into 96-well plate at a density of 1×10^4 cells per well and then treated with various concentrations of compounds for either 4 or 48 h. Then 10 μL of 3-(4, 5-dimethylthiazol-2-yl)-2, 5-diphenyltetrazolium bromide (MTT) (5 mg/mL) solution was added to each well for another 4 h incubation. The supernatants were then removed, and the formed formazan crystals were dissolved in 100 μL DMSO and the plate was agitated for 10 min. Relative cell viability was assessed by measuring the absorbance at 570 nm by using a microplate reader (Infinite M200 PRO Microplate Reader, Tecan, Swiss). The survival rate of HEK-293T-ACE2^h cells was calculated using the following formula: [(ODtreated-ODblank) / (ODcontrol-ODblank)] × 100%. The 50% toxic concentration (TC50) for 48 h was calculated by the GraphPad Prism 8.0 software (La Jolla, CA, USA). The maximum nontoxic concentration (CC0) for 4 h was determined as the maximum tested concentration in which the cell viability was 100%. Data were obtained from three independent experiments.

human ACE2 protein = target: T1, human ACE2 protein (Homo sapiens, UniProt Q9BYF1); experiment: Biolayer interferometry (BLI) binding assay with human ACE2; settings: His-tagged human ACE2 on Ni-NTA biosensor, 30 °C, 1:1 model
T1 construct: purchased Sino Biological

[2] = target: T2, SARS-CoV-2 spike RBD binding with ACE2 protein (Homo sapiens, UniProt Q9BYF1); experiment: Competitive ELISA of spike RBD binding with ACE2; assay type: biochemical; settings: read-out: Inhibitory rate of spike RBD-ACE2 binding
T2 construct: purchased Sino Biological

[3] = target: T3, SARS-CoV-2 spike RBD protein (Severe acute respiratory syndrome coronavirus 2, UniProt P0DTC2); assay type: binding
T3 construct: purchased Sino Biological

T2 sequence (Q9BYF1 18-740): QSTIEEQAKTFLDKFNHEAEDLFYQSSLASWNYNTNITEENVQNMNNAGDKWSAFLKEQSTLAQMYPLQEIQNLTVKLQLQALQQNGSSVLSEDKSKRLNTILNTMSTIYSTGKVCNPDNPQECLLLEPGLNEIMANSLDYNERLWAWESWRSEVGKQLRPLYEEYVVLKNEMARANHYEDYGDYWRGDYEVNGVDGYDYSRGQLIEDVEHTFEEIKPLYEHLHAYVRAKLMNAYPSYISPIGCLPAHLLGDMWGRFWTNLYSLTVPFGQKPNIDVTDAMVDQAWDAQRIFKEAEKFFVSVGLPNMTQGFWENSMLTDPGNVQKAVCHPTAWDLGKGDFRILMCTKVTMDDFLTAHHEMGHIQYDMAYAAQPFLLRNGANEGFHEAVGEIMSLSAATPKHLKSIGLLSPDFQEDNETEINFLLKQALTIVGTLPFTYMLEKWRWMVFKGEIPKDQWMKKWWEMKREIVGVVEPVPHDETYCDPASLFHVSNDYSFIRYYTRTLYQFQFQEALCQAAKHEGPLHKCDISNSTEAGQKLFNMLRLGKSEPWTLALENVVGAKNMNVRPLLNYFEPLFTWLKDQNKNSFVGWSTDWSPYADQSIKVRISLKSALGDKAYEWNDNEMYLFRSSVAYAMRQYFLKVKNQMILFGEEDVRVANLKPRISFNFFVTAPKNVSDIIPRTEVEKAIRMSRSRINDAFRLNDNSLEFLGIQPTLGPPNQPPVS
T1 sequence (Q9BYF1 18-805): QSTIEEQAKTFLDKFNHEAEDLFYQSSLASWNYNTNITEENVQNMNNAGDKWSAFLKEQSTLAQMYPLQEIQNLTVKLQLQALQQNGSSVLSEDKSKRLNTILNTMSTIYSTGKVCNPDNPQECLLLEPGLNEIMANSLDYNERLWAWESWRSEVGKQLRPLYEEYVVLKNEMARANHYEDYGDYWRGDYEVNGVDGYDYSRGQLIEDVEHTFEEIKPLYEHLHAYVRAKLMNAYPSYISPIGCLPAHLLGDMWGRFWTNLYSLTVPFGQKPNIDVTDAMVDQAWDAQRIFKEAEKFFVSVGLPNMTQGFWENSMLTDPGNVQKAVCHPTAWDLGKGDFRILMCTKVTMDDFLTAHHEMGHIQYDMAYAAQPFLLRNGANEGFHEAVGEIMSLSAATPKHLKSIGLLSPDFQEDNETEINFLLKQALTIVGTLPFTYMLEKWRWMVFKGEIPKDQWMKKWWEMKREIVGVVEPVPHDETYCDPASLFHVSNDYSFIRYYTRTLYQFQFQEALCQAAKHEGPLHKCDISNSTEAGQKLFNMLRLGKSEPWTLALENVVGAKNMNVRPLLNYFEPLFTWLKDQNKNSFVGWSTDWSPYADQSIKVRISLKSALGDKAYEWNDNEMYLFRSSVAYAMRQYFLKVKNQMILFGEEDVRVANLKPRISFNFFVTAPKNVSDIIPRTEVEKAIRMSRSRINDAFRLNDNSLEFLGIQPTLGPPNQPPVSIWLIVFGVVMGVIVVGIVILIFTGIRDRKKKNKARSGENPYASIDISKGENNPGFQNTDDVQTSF

Row | Compound | IC50 [1] | CC0 (maximum nontoxic concentration) (HEK-293T-ACE2^h cells) | TC50 (concentration causing 50% host cells' death) (HEK-293T-ACE2^h cells) | further results
1 | C=CCc1cc(-c2cc(CC=C)c3oc(=O)n(Cc4nnc(-c5ccccc5)o4)c3c2)c2oc(=O)n(Cc3nnc(-c4ccccc4)o3)c2c1 [Compound 6a] | 29.2 ± 0.71 µM | >100 µM | >100 µM | SI (selectivity index, TC50/IC50) [1]: >3.42; Kd (human ACE2 protein): 8.41 ± 0.43 µM
2 | C=CCc1cc(-c2cc(CC=C)c3oc(=O)n(Cc4nnc(-c5ccccc5Cl)o4)c3c2)c2oc(=O)n(Cc3nnc(-c4ccccc4Cl)o3)c2c1 [Compound 6b] | > 100 µM | >100 µM | >100 µM | 
3 | C=CCc1cc(-c2cc(CC=C)c3oc(=O)n(Cc4nnc(-c5cccc(Cl)c5)o4)c3c2)c2oc(=O)n(Cc3nnc(-c4cccc(Cl)c4)o3)c2c1 [Compound 6c] | > 100 µM | >100 µM | >100 µM | 
4 | C=CCc1cc(-c2cc(CC=C)c3oc(=O)n(Cc4nnc(-c5ccc(Cl)cc5)o4)c3c2)c2oc(=O)n(Cc3nnc(-c4ccc(Cl)cc4)o3)c2c1 [Compound 6d] | > 50 µM | 50 µM |  | 
5 | C=CCc1cc(-c2cc(CC=C)c3oc(=O)n(Cc4nnc(-c5ccccc5Br)o4)c3c2)c2oc(=O)n(Cc3nnc(-c4ccccc4Br)o3)c2c1 [Compound 6e] | > 100 µM | >100 µM | >100 µM | 
6 | C=CCc1cc(-c2cc(CC=C)c3oc(=O)n(Cc4nnc(-c5cccc(Br)c5)o4)c3c2)c2oc(=O)n(Cc3nnc(-c4cccc(Br)c4)o3)c2c1 [Compound 6f] | > 50 µM | 50 µM |  | 
7 | C=CCc1cc(-c2cc(CC=C)c3oc(=O)n(Cc4nnc(-c5ccc(Br)cc5)o4)c3c2)c2oc(=O)n(Cc3nnc(-c4ccc(Br)cc4)o3)c2c1 [Compound 6g] | > 50 µM | 50 µM |  | 
8 | C=CCc1cc(-c2cc(CC=C)c3oc(=O)n(Cc4nnc(-c5ccccc5F)o4)c3c2)c2oc(=O)n(Cc3nnc(-c4ccccc4F)o3)c2c1 [Compound 6h] | 61.6 ± 1.21 µM | >100 µM |  | SI (selectivity index, TC50/IC50) [1]: >1.62
9 | C=CCc1cc(-c2cc(CC=C)c3oc(=O)n(Cc4nnc(-c5cccc(F)c5)o4)c3c2)c2oc(=O)n(Cc3nnc(-c4cccc(F)c4)o3)c2c1 [Compound 6i] | > 100 µM | >100 µM | >100 µM | Antiviral entry activity (in words) [1]: complete loss of antiviral activities
10 | C=CCc1cc(-c2cc(CC=C)c3oc(=O)n(Cc4nnc(-c5ccc(F)cc5)o4)c3c2)c2oc(=O)n(Cc3nnc(-c4ccc(F)cc4)o3)c2c1 [Compound 6j] | > 50 µM | 50 µM |  | Antiviral entry activity (in words) [1]: complete loss of antiviral activities
11 | C=CCc1cc(-c2cc(CC=C)c3oc(=O)n(Cc4nnc(-c5ccccc5C)o4)c3c2)c2oc(=O)n(Cc3nnc(-c4ccccc4C)o3)c2c1 [Compound 6k] | > 100 µM | >100 µM | >100 µM | 
12 | C=CCc1cc(-c2cc(CC=C)c3oc(=O)n(Cc4nnc(-c5cccc(C)c5)o4)c3c2)c2oc(=O)n(Cc3nnc(-c4cccc(C)c4)o3)c2c1 [Compound 6l] | > 100 µM | >100 µM | >100 µM | 
13 | C=CCc1cc(-c2cc(CC=C)c3oc(=O)n(Cc4nnc(-c5ccc(C)cc5)o4)c3c2)c2oc(=O)n(Cc3nnc(-c4ccc(C)cc4)o3)c2c1 [Compound 6m] | > 50 µM | 50 µM |  | 
14 | C=CCc1cc(-c2cc(CC=C)c3oc(=O)n(Cc4nnc(-c5ccccc5OC)o4)c3c2)c2oc(=O)n(Cc3nnc(-c4ccccc4OC)o3)c2c1 [Compound 6n] | > 50 µM | 50 µM |  | 
15 | C=CCc1cc(-c2cc(CC=C)c3oc(=O)n(Cc4nnc(-c5cccc(OC)c5)o4)c3c2)c2oc(=O)n(Cc3nnc(-c4cccc(OC)c4)o3)c2c1 [Compound 6o] | > 100 µM | >100 µM | >100 µM | 
16 | C=CCc1cc(-c2cc(CC=C)c3oc(=O)n(Cc4nnc(-c5ccc(OC)cc5)o4)c3c2)c2oc(=O)n(Cc3nnc(-c4ccc(OC)cc4)o3)c2c1 [Compound 6p] | 9.82 ± 1.16 µM | >100 µM | >100 µM | inhibition at 12.5 µM ([2]; 12.5 µM): 26.1%; inhibition at 25 µM [2]: 37.2%; inhibition at 50 µM [2]: 50.4%; SI (selectivity index, TC50/IC50) [1]: >10.18; Kd (human ACE2 protein): 6.87 ± 0.29 µM; Interaction with spike RBD [3]: doesn’t show interaction
17 | C=CCc1ccc(O)c(-c2ccc(O)c(CC=C)c2)c1 [honokiol, reference compound] | > 50 µM | 50 µM | 48.23 µM and 48.23 ± 1.19 µM | inhibition at 25 µM [2]: 13.8%; inhibition at 50 µM [2]: 20.9%; Kd (human ACE2 protein): 17 ± 3.4 µM
